Laboratory results published in the Deep4Chem optical property database.
Each block holds one compound with its values, some of them ahead of it.

Experiment: solvent given as SMILES

absorption maximum (in ClCCl): 414 nm
Structure (SMILES): CC(C)(C)c1ccc(C#Cc2cc3c(C#Cc4ccc(C(C)(C)C)cc4)c(C#Cc4ccc(C(C)(C)C)cc4)c4cc(C#Cc5ccc(C(C)(C)C)cc5)cc5c(C#Cc6ccc(C(C)(C)C)cc6)c(C#Cc6ccc(C(C)(C)C)cc6)c(c2)c3c45)cc1

Structure (SMILES): N#Cc1cc2ccc([O-])cc2oc1=O
absorption maximum (in O): 408 nm

absorption maximum (in ClCCl): 405 nm
Structure (SMILES): c1ccc2c(c1)OB1Oc3ccccc3-c3c1c-2c1c2c3-c3ccccc3OB2Oc2ccccc2-1

absorption maximum (in CN(C)C=O): 396 nm
Structure (SMILES): O=C([O-])c1ccc(C(=O)[O-])c2cc3ccccc3cc12

absorption maximum (in C1CCOC1): 386 nm | absorption maximum (in CC#N): 380 nm | absorption maximum (in CO): 375 nm | absorption maximum (in ClCCl): 384 nm
Structure (SMILES): C(=C\c1nc2ccccc2s1)/c1ccc(-c2nc3c4cccnc4c4ncccc4c3[nH]2)cc1

absorption maximum (in C1CCOC1): 360 nm
Structure (SMILES): N#Cc1c(N2CCCCC2)cc(-c2ccccc2)c2c1-c1ccccc1C2

Structure (SMILES): CCOC(=O)COc1ccc(/C=C/C2=C3c4ccccc4C(c4[nH]c(C)cc4C)=[N+]3[B-](F)(F)n3c(C)cc(C)c32)cc1
absorption maximum (in C1CCOC1): 608 nm | absorption maximum (in CC#N): 602 nm | absorption maximum (in CCCCCC): 608 nm | absorption maximum (in CO): 603 nm | absorption maximum (in Cc1ccccc1): 614 nm | absorption maximum (in ClCCl): 608 nm

Structure (SMILES): O=C(O)C1=C/C(=C/C=[NH+]/c2ccc3c(C(F)(F)F)cc(=O)oc3c2)CC(C(=O)O)N1 (stereo not given)
absorption maximum (in O): 519 nm

absorption maximum (in ClCCl): 534 nm
Structure (SMILES): COc1ccc(-c2cc(-c3ccccc3)c3n2[B-](F)(F)[N+]2=C4C=NC=CN4[B-](F)(F)[N+]2=C3)cc1

absorption maximum (in ClC(Cl)Cl): 430 nm
Structure (SMILES): F[B-]1(F)OC(c2ccc(Br)cc2)=Cc2ccc3ccccc3[n+]21

absorption maximum (in ClCCl): 418 nm
Structure (SMILES): CC(C)(C)c1ccc2c(c1)c1cc(C(C)(C)C)ccc1n2-c1ccc(N(c2ccc(-c3ccc(-c4ccc(-c5ccc(N(c6ccc(-n7c8ccc(C(C)(C)C)cc8c8cc(C(C)(C)C)ccc87)cc6)c6ccc(-n7c8ccc(C(C)(C)C)cc8c8cc(C(C)(C)C)ccc87)cc6)cc5)s4)s3)cc2)c2ccc(-n3c4ccc(C(C)(C)C)cc4c4cc(C(C)(C)C)ccc43)cc2)cc1

Structure (SMILES): Cc1ccc2c(c1)C1(c3ccccc3-c3ccccc31)c1cc(C)ccc1N2c1ccc(-c2ncccn2)cc1
absorption maximum (in Cc1ccccc1): 380 nm

Structure (SMILES): COc1ccc2c(c1)c1cc(OC)ccc1n2-c1cccc(-n2c3ccc(OC)cc3c3cc(OC)ccc32)c1C#N
absorption maximum (in Cc1ccccc1): 391 nm

Structure (SMILES): CN(C)c1ccc(/C=C/C=C2\CC/C(=C\c3ccc(N(C)C)cc3)C2=O)cc1
absorption maximum (in C1CCOC1): 479 nm | absorption maximum (in CC#N): 478 nm | absorption maximum (in CC(C)=O): 474 nm | absorption maximum (in CC(C)O): 493 nm | absorption maximum (in CCCCCC): 435 nm | absorption maximum (in CCCCO): 499 nm | absorption maximum (in CCCCOC(C)=O): 468 nm | absorption maximum (in CCCO): 499 nm | absorption maximum (in CCO): 498 nm | absorption maximum (in CCOC(=O)c1ccccc1): 481 nm | absorption maximum (in CCOC(C)=O): 464 nm | absorption maximum (in CCOCC): 448 nm | absorption maximum (in CN(C)C=O): 486 nm | absorption maximum (in CO): 500 nm | absorption maximum (in CS(C)=O): 496 nm | absorption maximum (in Cc1ccccc1): 475 nm | absorption maximum (in ClC(Cl)(Cl)Cl): 449 nm | absorption maximum (in ClC(Cl)Cl): 486 nm | absorption maximum (in ClCCl): 484 nm | absorption maximum (in Clc1ccccc1Cl): 488 nm | absorption maximum (in S=C=S): 489 nm | absorption maximum (in c1ccccc1): 475 nm | absorption maximum (in c1ccncc1): 488 nm

absorption maximum (in CCCCCC): 344 nm | absorption maximum (in CO): 344 nm | absorption maximum (in ClCCl): 347 nm
Structure (SMILES): CCCCc1ccc2ccc3c(CCCC)ccc4ccc1c2c43

absorption maximum (in CO): 284 nm
Structure (SMILES): Cc1ccc(-c2nc(-c3cc([N+](=O)[O-])ccc3O)[nH]c2-c2ccc(C)cc2)cc1

Structure (SMILES): FC(F)(F)C(F)(F)C(F)(F)C1=NC2=C(c3ccc4ccc5cccc6ccc3c4c56)C=C3c4cc(-c5ccc6ccc7cccc8ccc5c6c78)c5nc(C(F)(F)C(F)(F)C(F)(F)F)nc6c(-c7ccc8ccc9cccc%10ccc7c8c9%10)cc(c4c56)=C4C=C(c5ccc6ccc7cccc8ccc5c6c78)C(=N1)C2C34 (stereo not given)
absorption maximum (in C1CCOC1): 524 nm | absorption maximum (in Cc1ccccc1): 560 nm

Structure (SMILES): CNC1=C2C=CC=[N+]2[B-](F)(F)n2cccc21
absorption maximum (in C1CCCCC1): 418.5 nm | absorption maximum (in CC(C)=O): 395.5 nm | absorption maximum (in CCO): 397 nm | absorption maximum (in CCOC(C)=O): 398.5 nm | absorption maximum (in CO): 394.5 nm | absorption maximum (in OCC(F)(F)F): 393 nm

absorption maximum (in CO): 309 nm | absorption maximum (in O): 401 nm
Structure (SMILES): O=[N+]([O-])c1ccc(O)cc1

absorption maximum (in ClCCl): 405 nm
Structure (SMILES): c1ccc(B2Nc3cc4c(cc3-c3sccc32)NB(c2ccccc2)c2ccsc2-4)cc1

absorption maximum (in CC#N): 326 nm
Structure (SMILES): N#Cc1nn(-c2ccccc2C(F)(F)F)nc1N1CCCC1

Structure (SMILES): CCOC(=O)c1cc2ccc3ccccc3c2c(C(=O)OCC)c1N
absorption maximum (in Cc1ccccc1): 427 nm

Structure (SMILES): CC(C)(C)c1cc(-c2c3cccc4c5cccc6c(-c7cc(C(C)(C)C)cc(C(C)(C)C)c7)c7cccc8c9cccc2c9c(c34)c(c65)c78)cc(C(C)(C)C)c1
absorption maximum (in Cc1ccccc1): 687 nm

Structure (SMILES): CCC1=C(C)C(=O)n2c1cc1c(C)c(CCC(=O)OC)c(C)n1c2=O
absorption maximum (in CC#N): 420 nm | absorption maximum (in CC(C)=O): 420 nm | absorption maximum (in CO): 424 nm | absorption maximum (in CS(C)=O): 425 nm | absorption maximum (in ClC(Cl)Cl): 427 nm | absorption maximum (in c1ccccc1): 420 nm

absorption maximum (in ClC(Cl)Cl): 427 nm
Structure (SMILES): CC(C)n1c(=O)c2cc3ccc4cccc5ccc(c2c1=O)c3c45

absorption maximum (in ClCCl): 470 nm
Structure (SMILES): CCCCCc1c(C(=O)c2ccc3c4c(cccc24)-c2cccc4c2C3CC=C4)c2ccc3cccc4c5cccc6ccc1c(c65)c2c34 (stereo not given)

absorption maximum (in C1CCOC1): 356 nm | absorption maximum (in CC#N): 352 nm | absorption maximum (in CN(C)C=O): 357 nm | absorption maximum (in ClC(Cl)Cl): 357 nm | absorption maximum (in c1ccccc1): 358 nm
Structure (SMILES): N#Cc1ccc(C#Cc2ccc(C#Cc3ccc(C#Cc4ccccc4C#N)cc3C#N)cc2C#N)cc1

absorption maximum (in CC#N): 551 nm | absorption maximum (in CCO): 556 nm | absorption maximum (in CN(C)C=O): 554 nm | absorption maximum (in O): 554 nm
Structure (SMILES): CCN(CC)c1ccc2c(-c3ccc(S(=O)(=O)O)cc3S(=O)(=O)[O-])c3ccc(=[N+](CC)CC)cc-3oc2c1

absorption maximum (in C1CCCCC1): 256 nm
Structure (SMILES): CC(C)(C)c1ccc(-c2ccc(C(C)(C)C)cc2)cc1

Structure (SMILES): c1ccc2nc3cccc(-c4ccc(-n5c6ccccc6c6ccccc65)cc4)c3cc2c1
absorption maximum (in C1CCOC1): 359 nm | absorption maximum (in CC#N): 358 nm | absorption maximum (in CC(C)=O): 358 nm | absorption maximum (in CC(C)OC(C)C): 359 nm | absorption maximum (in CCCCCC): 359 nm | absorption maximum (in CCCCOCCCC): 359 nm | absorption maximum (in CCOC(C)=O): 359 nm | absorption maximum (in CCOCC): 358 nm

absorption maximum (in ClCCl): 408 nm
Structure (SMILES): C[Si]1(C)c2cc(-c3cccs3)ccc2C=Cc2ccc(-c3cccs3)cc21

absorption maximum (in ClCCl): 330 nm
Structure (SMILES): CC1(C)c2ccccc2-c2sc3ccccc3c21

absorption maximum (in ClCCl): 368 nm
Structure (SMILES): C[Si]1(C)O[Si](C)(C)c2cc3c(-c4ccccc4)c4ccccc4nc3cc21

absorption maximum (in C1CCCCC1): 384 nm | absorption maximum (in CC#N): 382 nm | absorption maximum (in ClC(Cl)Cl): 384 nm
Structure (SMILES): O=C1Cc2ccc(cc2)CC(=O)Cc2ccc(c3nsnc23)C1

absorption maximum (in ClCCl): 307.5 nm
Structure (SMILES): CCCCCCCCCCn1c(-c2cc(-c3nc4ccc(C)cc4n3CCCCCCCCCC)cc(-c3nc4ccc(C)cc4n3CCCCCCCCCC)c2)nc2ccc(C)cc21

absorption maximum (in ClCCl): 387 nm
Structure (SMILES): O=C1c2ccccc2C2=Nc3ccc4ccccc4[n+]3[B-](F)(F)N12

absorption maximum (in CC#N): 310 nm | absorption maximum (in CO): 310 nm | absorption maximum (in O): 308 nm
Structure (SMILES): CN1CCN(CCCN2c3ccccc3Sc3ccc(C(F)(F)F)cc32)CC1

absorption maximum (in CC#N): 358 nm | absorption maximum (in CCCCCC): 352 nm
Structure (SMILES): C(=C\c1cccnc1)/c1ccc(Nc2ccccc2)cc1

absorption maximum (in C1CCOC1): 438 nm
Structure (SMILES): C1=C(c2ccccc2)C=C(c2ccccc2)/C1=C/c1ccccc1

absorption maximum (in ClCCl): 680 nm
Structure (SMILES): CCOC(=O)COc1ccc(/C=C/C2=[N+]3C(=Cc4c5ccccc5c(-c5[nH]c(C)cc5C)n4[B-]3(F)F)C(C)=C2)cc1

absorption maximum (in C1CCOC1): 505 nm
Structure (SMILES): CC1=C[C@]2(C)C(=C3C(=C4C(C)=C(c5ccc(-c6nc(-c7ccccc7)c(-c7ccccc7)[nH]6)cc5)S[C@]42C)C(F)(F)C(F)(F)C3(F)F)S1

absorption maximum (in CN(C)C=O): 592 nm
Structure (SMILES): CCN(CC)c1ccc(/C=C2\CC/C(=C\c3ccc(N(c4ccccc4)c4ccc(/C=C5\CC/C(=C\c6ccc(N(CC)CC)cc6)C5=C(C#N)C#N)cc4)cc3)C2=C(C#N)C#N)cc1

absorption maximum (in CC#N): 386 nm | absorption maximum (in CCO): 388 nm | absorption maximum (in O): 382 nm
Structure (SMILES): CC(=O)OC[C@@H]1O[C@H](N2C=CC3=Nc4nc(C)[n+](C)cc4CN3C2=O)[C@@H](O)[C@H]1O

Structure (SMILES): CC(=O)OC[C@H]1O[C@@H]([C@@H]2C=CC(=S)NC2=O)[C@H](OC(C)=O)[C@@H]1OC(C)=O
absorption maximum (in ClC(Cl)(Cl)Cl): 420 nm

absorption maximum (in ClC(Cl)Cl): 606 nm
Structure (SMILES): CCCCCCCCC1(CCCCCCCC)c2cc3c(cc2-c2sc(-c4ccc(/C=C5\SC(N6CCCCC6)=NC5=O)c5nsnc45)cc21)C(CCCCCCCC)(CCCCCCCC)c1cc(-c2ccc(/C=C4\SC(N5CCCCC5)=NC4=O)c4nsnc24)sc1-3

absorption maximum (in ClCCl): 445 nm
Structure (SMILES): [O-][n+]1c(-c2ccc(Br)cc2)cc(N2CCOCC2)nc1/C=C/c1ccccc1

absorption maximum (in CC#N): 352 nm
Structure (SMILES): c1ccc2c(c1)ccc1oc3ccc4cc5oc6ccc7ccc8oc9ccc%10ccccc%10c9c8c7c6c5cc4c3c12

absorption maximum (in CC#N): 390 nm
Structure (SMILES): COc1ccccc1-c1nc2c([nH]1)C1=CC(=O)S[C@]1(C)[C@@]1(C)SC(=O)C=C21

absorption maximum (in CC#N): 524 nm | absorption maximum (in CCCCCC): 534 nm | absorption maximum (in CCOC(C)=O): 527 nm | absorption maximum (in CO): 525 nm | absorption maximum (in ClCCl): 531 nm
Structure (SMILES): CCc1c(C)c2n(c1C)[B-](F)(F)[N+]1=C(NCc3ccc(OC)cc3)C=CC1=C2C

absorption maximum (in ClCCl): 526 nm
Structure (SMILES): COc1ccc2cc(/C=C/C3=[O+][B-](F)(F)OC(/C=C/c4ccc5cc(OC)ccc5c4)=C3c3ccccc3)ccc2c1

absorption maximum (in ClC(Cl)Cl): 352 nm
Structure (SMILES): N#Cc1ccc(Oc2ccc3c4c(cccc24)C(=O)N(CCO)C3=O)cc1

absorption maximum (in C1COCCO1): 416 nm
Structure (SMILES): O=C1OC(c2ccccc2)=C/C1=C\c1ccc([N+](=O)[O-])cc1

absorption maximum (in CC#N): 383 nm | absorption maximum (in CO): 381 nm | absorption maximum (in CS(C)=O): 384 nm | absorption maximum (in ClC(Cl)Cl): 389 nm
Structure (SMILES): CCC1=C(C)C2=Cc3cc4c(cc3B(O)N2C1=O)OCO4
